Experimental data: patent publication US9227921B2, “Salts and polymorphs of a tetracycline compound” (Paratek Pharmaceuticals, Inc., priority 2008, dated 2016)

Key:
[1] = Stability studies on free base Compound 1 and amorphous diHCl salt; format: physicochemical
Protocol: Stability studies were performed on the free base Compound 1 and an amorphous diHCl salt of Compound 1. This salt was formed by dissolving the compound in aqueous solution, adjusting the pH of the solution to approximately 4.2, followed by lyophilization. The free base degraded in less than one month at 40° C., and approximately three months at 4° C. In contrast, the diHCl salt of Compound 1 was stable for 6 months at 40° C., and for two years at room temperature (25° C.).

[2] = Solid phase stability of amorphous Compound 1; format: physicochemical; conditions: temperatures higher than 0° C. and when exposed to air
Text: Tetracycline-type antibiotic compounds have long been known to have limited stability in the solid phase freebase form. One such non-crystalline tetracycline analog compound, (4S,4AS,5AR,12AS)-4-7-Bis(dimethylamino)-9-{[(2,2-dimethylpropyl)amino]methyl}-3,10,12,12A-tetrahydroxy-1,1′-dioxo-1,4,4A,5,5A,6,11,12A-octahydrotetracene-2-carboxamide (Compound 1; MW=556.66, MF=C29H40N4O7), has limited stability in the solid phase upon exposure to air, light and/or moisture.
Specifically, Compound 1 is a yellow amorphous solid that is unstable at temperatures higher than 0° C. and when exposed to air. Compound 1 must be stored at temperatures below 0° C. with limited exposure in the solid phase to air, light and moisture. Outside of these limited exposure conditions, Compound 1 degrades to produce degradation products including air degradation products 2, 3 and 4, as well as the 4-epi-isomer 5.

## CN(C)c1cc(CNCC(C)(C)C)c(O)c2c1C[C@H]1C[C@H]3[C@H](N(C)C)C(O)=C(C(N)=O)C(=O)[C@@]3(O)C(O)=C1C2=O [Compound 1, (4S,4AS,5AR,12AS)-4-7-Bis(dimethylamino)-9{[(2,2-dimethylpropyl)amino]methyl}-3,10,12,12A-tetrahydroxy-1,1′-dioxo-1,4,4A,5,5A,6,11,12A-octahydrotetracene-2-carboxamide]
[1]; 4° C.
  time in which the substance degraded: approximately three
[1]; 40° C.
  time in which the substance degraded: less than one
[2]
  solid phase stability: unstable
